In ChEMBL document CHEMBL3045544, “Synthesis, antimicrobial and antioxidant activities of some new indole derivatives containing pyridopyrimidine and pyrazolopyridine moieties” (Med Chem Res, 2013):

Key:
Pseudomonas aeruginosa = assay: Antimicrobial activity against Pseudomonas aeruginosa MTCC 1688 assessed as diameter of growth inhibition zone at 500 ug/ml after 24 hr by cup-plate method; assay type: functional; settings: MTCC 1688, 24 h, read-out: DIZ
Aspergillus oryzae = assay: Antimicrobial activity against Aspergillus oryzae MTCC 3567 assessed as diameter of growth inhibition zone at 500 ug/ml after 72 hr by cup-plate method; assay type: functional; settings: MTCC 3567, 72 h, read-out: DIZ
Escherichia coli = assay: Antimicrobial activity against Escherichia coli MTCC 723 assessed as diameter of growth inhibition zone at 500 ug/ml after 24 hr by cup-plate method; assay type: functional; settings: MTCC 723, 24 h, read-out: DIZ
Staphylococcus aureus = assay: Antimicrobial activity against Staphylococcus aureus ATCC 29513 assessed as diameter of growth inhibition zone at 500 ug/ml after 24 hr by cup-plate method; assay type: functional; settings: ATCC 29513, 24 h, read-out: DIZ
[1] = test system: Radical scavenging activity; assay: Antioxidant activity assessed as DPPH radical scavenging activity at 25 ug/ml by spectrophotometric analysis; assay type: functional
Aspergillus niger = assay: Antimicrobial activity against Aspergillus niger MTCC 281 assessed as diameter of growth inhibition zone at 500 ug/ml after 72 hr by cup-plate method; assay type: functional; settings: MTCC 281, 72 h, read-out: DIZ
Aspergillus flavus = assay: Antimicrobial activity against Aspergillus flavus MTCC 1973 assessed as diameter of growth inhibition zone at 500 ug/ml after 72 hr by cup-plate method; assay type: functional; settings: MTCC 1973, 72 h, read-out: DIZ
Klebsiella pneumoniae = assay: Antimicrobial activity against Klebsiella pneumoniae NCTC 13368 assessed as diameter of growth inhibition zone at 500 ug/ml after 24 hr by cup-plate method; assay type: functional; settings: NCTC 13368, 24 h, read-out: DIZ
Aspergillus terreus = assay: Antimicrobial activity against Aspergillus terreus MTCC 1782 assessed as diameter of growth inhibition zone at 500 ug/ml after 72 hr by cup-plate method; assay type: functional; settings: MTCC 1782, 72 h, read-out: DIZ
[2] = test system: Radical scavenging activity; assay: Antioxidant activity assessed as DPPH radical scavenging activity at 75 ug/ml by spectrophotometric analysis; assay type: functional
[3] = test system: Radical scavenging activity; assay: Antioxidant activity assessed as DPPH radical scavenging activity at 100 ug/ml by spectrophotometric analysis; assay type: functional
[4] = Antioxidant activity assessed as ferric ion reducing activity after 20 min by FRAP assay; assay type: functional
[5] = Metal chelating activity of the compound assessed as inhibition of ferrozine Fe2+ complex formation at 25 to 100 ug/ml after 10 min by spectrophotometric analysis; assay type: physicochemical

inhibition (INH) [5] | Compound | zone of inhibition at 500 µg/mL (Pseudomonas aeruginosa) [mm] | zone of inhibition at 500 µg/mL (Aspergillus oryzae) [mm] | zone of inhibition at 500 µg/mL (Escherichia coli) [mm] | zone of inhibition at 500 µg/mL (Staphylococcus aureus) [mm] | Activity [1] [%] | zone of inhibition at 500 µg/mL (Aspergillus niger) [mm] | zone of inhibition at 500 µg/mL (Aspergillus flavus) [mm] | zone of inhibition at 500 µg/mL (Klebsiella pneumoniae) [mm] | zone of inhibition at 500 µg/mL (Aspergillus terreus) [mm] | Activity [2] [%] | Activity [3] [%] | Activity [4]
– | Nc1ncnc2nc(-c3ccc(Cl)cc3)cc(-c3c(-c4ccccc4)[nH]c4ccccc34)c12 | 2 | 2 | 8 | 10 | 66.8 | 10 | 8 | 5 | 10 | – | – | –
– | O=c1[nH]cnc2nc(-c3ccccc3)cc(-c3c(-c4ccccc4)[nH]c4ccc(Cl)cc34)c12 | 8 | 12 | 12 | 5 | – | 12 | 9 | 14 | 10 | 74.1 | 78.8 | –
– | Cc1ccc(-c2cc(-c3c(-c4ccccc4)[nH]c4ccc(C)cc34)c3c(=O)[nH]cnc3n2)cc1 | 10 | 8 | 5 | 8 | 74.4 | 10 | 5 | 12 | 10 | – | – | –
– | Cc1ccc(-c2cc(-c3c(-c4ccccc4)[nH]c4ccc(Cl)cc34)c3c(=O)[nH]cnc3n2)cc1 | 5 | 10 | 10 | 8 | 61.5 | 11 | 8 | 11 | 9 | – | – | –
– | Cc1ccc2[nH]c(-c3ccccc3)c(-c3cc(-c4ccccc4)nc4[nH]nc(N)c34)c2c1 | 5 | 14 | 8 | 10 | – | 2 | 6 | 9 | 5 | 75.2 | 68.2 | Dose-dependent effect
Active | Cc1ccc(-c2cc(-c3c(-c4ccccc4)[nH]c4ccc(Cl)cc34)c3c(N)n[nH]c3n2)cc1 | 9 | 10 | 6 | 10 | – | 8 | 5 | 9 | 11 | – | – | Dose-dependent effect
